Test results from publication PMC3013619 (Cell host & microbe, 2009).

The compounds below were run against T1, TgAPT (apicoplast phosphate translocator), TgAPT-N (Toxoplasma gondii, UniProt A7U554) (assay: […]-Pi uptake into proteoliposomes, competitive inhibition). Conditions: competitive with Pi; apparent; pH 7.6; reconstituted solubilized yeast membranes.
T1 sequence (A7U554 1-352): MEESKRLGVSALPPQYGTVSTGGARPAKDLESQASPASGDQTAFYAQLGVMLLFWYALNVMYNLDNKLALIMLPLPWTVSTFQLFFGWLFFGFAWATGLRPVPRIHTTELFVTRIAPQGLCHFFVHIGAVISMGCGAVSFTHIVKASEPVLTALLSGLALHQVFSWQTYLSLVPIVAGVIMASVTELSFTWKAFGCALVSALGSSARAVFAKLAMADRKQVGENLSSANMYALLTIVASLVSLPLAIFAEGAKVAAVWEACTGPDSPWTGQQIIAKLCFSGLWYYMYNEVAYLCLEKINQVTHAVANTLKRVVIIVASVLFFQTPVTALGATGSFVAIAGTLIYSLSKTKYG
Type: biochemical

Compound | Kinetic constant ^d / TgAPT
C=C(OP(=O)(O)O)C(=O)O [PEP] | 1.65 ± 0.52 mM
triose phosphate | 1.63 ± 0.26 mM
O=C(O)[C@H](O)COP(=O)(O)O [3-PGA] | 1.33 ± 0.49 mM
